From patent publication US5399570A, “Aspartic acid derivatives, and their use for inhibiting platelete aggregation” (Cassella Aktiengesellschaft, priority 1992, dated 1995)
Where two headings read alike, the source gives them in different places.

Assays:
[1] = test system: filtered, plasma-free human platelets; assay: inhibition of aggregation of filtered human platelets after ADP or thrombin stimulation; assay type: cell-based; details: Platelet
Method: (§1) The compounds of the formula I are in particular tested for their inhibiting action in blood platelet aggregation and the adhesion of fibrinogen to blood platelets. The measurement of aggregation and the binding of ^125 I-fibrinogen is carried out on filtered, plasma-free human platelets. Platelet activation is effected by means of ADP or thrombin.
As a functional test, the inhibition of aggregation of filtered human platelets is measured after ADP or thrombin stimulation by the compounds according to the invention. The IC50 value of inhibition is given.

[2] = target: T1, glycoprotein IIb/IIIa localised on blood platelets (fibrinogen receptor) (Homo sapiens, UniProt P05106+P08514); assay: inhibition of binding of ^125 I-fibrinogen to human platelets after stimulation with ADP; details: after stimulation with ADP (10 μM)
T1 construct: carried out on filtered, plasma-free human platelets; endogenous in cells; host or cells: filtered, plasma-free human platelets, stimulated with ADP (10 μM)
T1 sequence (P08514 32-887 limits assumed): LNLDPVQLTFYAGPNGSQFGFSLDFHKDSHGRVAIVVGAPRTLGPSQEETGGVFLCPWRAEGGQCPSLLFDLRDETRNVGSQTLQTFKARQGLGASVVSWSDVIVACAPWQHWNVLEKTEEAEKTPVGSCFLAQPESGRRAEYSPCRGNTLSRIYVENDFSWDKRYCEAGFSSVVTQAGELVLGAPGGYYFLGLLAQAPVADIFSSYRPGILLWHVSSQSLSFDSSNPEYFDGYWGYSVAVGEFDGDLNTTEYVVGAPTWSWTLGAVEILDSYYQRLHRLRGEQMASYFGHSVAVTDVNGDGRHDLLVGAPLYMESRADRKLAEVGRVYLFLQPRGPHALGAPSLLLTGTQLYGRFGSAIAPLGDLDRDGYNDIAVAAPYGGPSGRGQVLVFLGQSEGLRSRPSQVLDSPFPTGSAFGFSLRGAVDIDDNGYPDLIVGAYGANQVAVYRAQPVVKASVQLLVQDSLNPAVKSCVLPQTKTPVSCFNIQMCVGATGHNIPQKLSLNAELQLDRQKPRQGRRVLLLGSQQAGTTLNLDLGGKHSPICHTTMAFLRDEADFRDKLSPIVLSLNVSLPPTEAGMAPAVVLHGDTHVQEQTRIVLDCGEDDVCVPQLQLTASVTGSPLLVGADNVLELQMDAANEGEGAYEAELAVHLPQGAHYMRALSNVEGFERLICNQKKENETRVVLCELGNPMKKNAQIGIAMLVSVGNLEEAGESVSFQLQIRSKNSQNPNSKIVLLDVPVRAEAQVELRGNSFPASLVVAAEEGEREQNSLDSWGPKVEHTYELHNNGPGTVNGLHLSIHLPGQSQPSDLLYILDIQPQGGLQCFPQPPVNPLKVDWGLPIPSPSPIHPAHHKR
T1 sequence (P05106 27-788): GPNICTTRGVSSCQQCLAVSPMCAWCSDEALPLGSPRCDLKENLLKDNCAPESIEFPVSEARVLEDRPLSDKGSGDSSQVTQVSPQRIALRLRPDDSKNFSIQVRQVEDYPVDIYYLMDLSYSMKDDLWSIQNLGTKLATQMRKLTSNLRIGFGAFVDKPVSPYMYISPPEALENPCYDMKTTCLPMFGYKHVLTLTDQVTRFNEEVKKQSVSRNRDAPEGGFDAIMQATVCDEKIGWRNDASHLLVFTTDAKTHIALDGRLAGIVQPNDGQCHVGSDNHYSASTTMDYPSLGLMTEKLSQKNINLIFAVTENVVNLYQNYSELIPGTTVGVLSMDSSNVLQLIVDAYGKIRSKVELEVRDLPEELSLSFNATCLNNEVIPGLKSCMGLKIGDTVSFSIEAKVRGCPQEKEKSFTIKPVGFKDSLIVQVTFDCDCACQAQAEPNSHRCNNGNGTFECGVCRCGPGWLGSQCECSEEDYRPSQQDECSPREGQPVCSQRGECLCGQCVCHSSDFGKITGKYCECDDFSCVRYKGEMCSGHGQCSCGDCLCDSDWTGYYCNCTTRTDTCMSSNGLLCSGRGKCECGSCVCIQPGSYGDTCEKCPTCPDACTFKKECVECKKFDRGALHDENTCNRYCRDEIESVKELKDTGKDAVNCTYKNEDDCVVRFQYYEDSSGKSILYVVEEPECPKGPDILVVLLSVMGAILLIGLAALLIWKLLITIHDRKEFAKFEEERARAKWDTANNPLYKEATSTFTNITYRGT
Description: Integrins are cell membrane glycoproteins and mediate cell adhesion by interaction with a large number of extracelluar proteins, such as fibronectin, laminin, fibrinogen, collagen, vitronectin, and yon Willebrand factor or with other cell membrane proteins, such as, for example, ICAM-1. An important receptor of the integrin family is glycoprotein IIb/IIIa localised on blood platelets (fibrinogen receptor)--a key protein in platelet-platelet interaction and thrombus formation. A central fragment in the receptor recognition sequence of these proteins is the tripeptide Arg--Gly--Asp (E. Ruoslahti and M. D. Pierschbacher, Science 238 (1987) 491-497; D. R. Phillips, I. F. Charo, L. V. Parise and L. A. Fitzgerald, Blood 71 (1988) 831-843).
as §1
The Ki value of the inhibition of binding of ^125 I-fibrinogen after stimulation with ADP (10 μm) is given.
Reference: J. S. Bennett and G. Vilaire, J. Clin. Invest. 64, (1979), 1393-1401.

[3] = ADP stimulation, read-out: Inhibition of platelet aggregation ADP, IC50 value of inhibition
[4] = thrombin stimulation, read-out: Inhibition of platelet aggregation Thrombin, IC50 value of inhibition

SMILES | IC50 [1, 3] [µM] | IC50 [1, 4] [µM] | Ki [2] [µM]
N=C(N)N1CCC(Cc2ccc(C(=O)N[C@@H](CC(=O)O)C(=O)NCCC(c3ccccc3)c3ccccc3)cc2)CC1 [Example 3] | 15 | 5 | –
N=C(N)N1CCC(Cc2ccc(C(=O)N[C@@H](CC(=O)O)C(=O)NC3CCCCC3)cc2)CC1 [Example 2, p-(4-(N-Amidinopiperidinyl)methyl)benzoyl-L-aspartylcyclohexylamide] | 15 | 10 | –
CN(CC(=O)N[C@@H](CC(=O)O)C(=O)NCCC(c1ccccc1)c1ccccc1)C(=O)c1ccc(CNC(=N)N)cc1 [Example 9, p-Guanidinomethylbenzoylsarcosyl-L-aspartyl-3,3-diphenylpropylamide] | 2 | 2 | 1.8
CC(C)NC(=O)[C@H](CC(=O)O)NC(=O)c1ccc(CC2CCN(C(=N)N)CC2)cc1 [Example 4] | 20 | 15 | 10
CN(CC(=O)N[C@@H](CC(=O)O)C(=O)NC(c1ccccc1)c1ccccc1)C(=O)[C@H]1CC[C@H](CNC(=N)N)CC1 [Example 12, trans-4 -Guanidinomethylcyclohexanecarboxylsarcosyl-L-aspartylbenzhydrylamide] | 8 | 4 | 3.1
CC(C)[C@H](NC(=O)[C@H](CC(=O)O)NC(=O)c1ccc(CC2CCN(C(=N)N)CC2)cc1)C(=O)O [Example 1, p-(4-(N-Amidinopiperidinyl)methyl)benzoyl-L-aspartyl-L-valine] | 8 | 2 | –
CC(C)[C@H](NC(=O)[C@H](CC(=O)O)NC(=O)c1ccc(OC2CCN(C(=N)N)CC2)cc1)C(=O)O [Example 14, p-(4-N-Amidinopiperidinyloxy)benzoyl-L-aspartyl-L-valine] | 4.5 | 1.5 | 0.8
